Measured values: patent US4111955A, “N-Trihalomethanesulfenyl carbamoyloximino di-sulfur heterocyclic compounds” (priority 1976, dated 1978)
Converted amounts (≈) assume the structure as drawn. Read-outs that look alike come from different tables or passages of the source.

How the values were obtained:
[1] = tested on: bean aphid (Aphis fabae Scop.); test: Bean Aphid Foliage Spray Test; format: in vivo; set-up: key to pesticidal activity rating, Aphid: A: excellent control; B: partial control; C: no control; settings: for pesticidal activity rating, Aphid: 500 parts per million, 24 hour
Experimental: Adults and nymphal stages of the bean aphid (Aphis fabae Scop.) reared on potted dwarf nasturtium plants at 65°-70° F. and 50-70 percent relative humidity, constituted the test insects. For testing purposes, the number of aphids per pot was standardized to 100-150 by trimming plants containing excess aphids.
The test compounds were formulated by diluting the stock suspension with water to give a suspension containing 500 parts of test compound per million parts of final formulation.
The potted plants (one pot per compound tested) infested with 100-150 aphids, were placed on a revolving turntable and sprayed with 100-110 milliliters of test compound formulation by use of a DeVilbiss spray gun set at 40 psig. air pressure. This application, which lasted 25 seconds, was sufficient to wet the plants to run-off. As a control, 100-110 milliliters of a water-acetone-emulsifier solution containing no test compound were also sprayed on infested plants. After spraying, the pots were placed on their sides on a sheet of white standard mimeograph paper which had been previously ruled to facilitate counting. Temperature and humidity in the test room during the 24 hour holding period were 65°-70° F. and 50-70 percent, respectively. Aphids which fell onto the paper and were unable to remain standing after being uprighted were considered dead. Aphids remaining on the plants were observed closely for movement and those which were unable to move the length of the body upon stimulation by prodding were considered dead. Percent mortality was recorded for various concentration levels.
(§1) In these tests the pesticidal activity of the compounds against aphid, mite, Southern Armyworm, Bean Beetle and House fly was rated as follows:
(§2) The LD50 values shown in the above Table II were determined by testing the compositions over an appropriate concentration range obtained by serial dilution of the stock suspension with water. The percent kill was plotted on log-probit graph paper versus parts per million concentration, and the LD50 read from an eye-fitted line drawn through the resultant points.

[2] = tested on: two-spotted mite (Tetranychus urticae Koch); test: Mite Foliage Spray Test; format: in vivo; set-up: key to pesticidal activity rating, Mite: A: excellent control; B: partial control; C: no control; settings: for pesticidal activity rating, Mite: 500 parts per million, 6 days
Experimental: (§3) Adults and nymphal stages of the two-spotted mite (Tetranychus urticae Koch), reared on Tendergreen bean plants at 80±5 percent relative humidity, were the test organisms. Infested leaves from a stock culture were placed on the primary leaves of two bean plants 6 to 8 inches in height, growing in a 21/2 inch clay pot. 150-200 Mites, a sufficient number for testing, transferred from the excised leaves to the fresh plants in a period of 24 hours. Following the 24 hour transfer period, the excised leaves were removed from the infested plants. The test compounds were formulated by diluting the stock suspension with water to give a suspension containing 500 parts of test compound per million parts of final formulation. The potted plants (one pot per compound) were placed on a revolving turntable and sprayed with 100-110 milliliters of test compound formulation by use of a DeVilbiss spray gun set at 40 psig. air pressure. This application, which lasted 25 seconds, was sufficient to wet the plants to run-off. As a control, 100-110 milliliters of a water solution containing acetone and emulsifier in the same concentrations as the test compound formulation, but containing no test compound, were also sprayed on infested plants. The sprayed plants were held at 80±5 percent relative humidity for 6 days, after which a mortality count of motile forms was made. Microscopic examination for motile forms was made on the leaves of the test plants. Any individual which was capable of locomotion upon prodding was considered living.
as §1, §2

[3] = tested on: southern armyworm (Prodenia eridania, (Cram.)); test: Southern Armyworm Leaf Spray Test; format: in vivo; set-up: key to pesticidal activity rating, Armyworm: A: excellent control; B: partial control; C: no control; settings: for pesticidal activity rating, Armyworm: 500 parts per million, 3 days
Experimental: Larvae of the southern armyworm (Prodenia eridania, (Cram.)), reared on Tendergreen bean plants at a temperature of 80°±5° F. and a relative humidity of 50±5 percent, constituted the test insects.
The test compounds were formulated by diluting the stock suspension with water to give a suspension containing 500 parts of test compound per million parts of final formulation. Potted Tendergreen bean plants of standard height and age were placed on a revolving turntable and sprayed with 100-110 milliliters of test compound formulation by use of a DeVilbiss spray gun set at 10 psig air pressure. This application, which lasted 25 seconds, was sufficient to wet plants to run-off. As a control, 100-110 milliliters of a water-acetone-emulsifier solution containing no test compound were also sprayed on infested plants. When dry, the paired leaves were separated and each one was placed in a 9 centimeter Petri dish lined with moistened filter paper. Five randomly selected larvae were introduced into each dish and the dishes were closed. The closed dishes were labeled and held at 80°-85° F. for 3 days. Although the larvae could easily consume the whole leaf within 24 hours, no more food was added. Larvae which were unable to move the length of the body, even upon stimulation by prodding, were considered dead. Percent mortality was recorded for various concentration levels.
as §1, §2

[4] = tested on: Mexican bean beetle (Epilachna varivestis, Muls.); test: Mexican Bean Beetle Leaf Spray Test; format: in vivo; set-up: key to pesticidal activity rating, Bean beetle: A: excellent control; B: partial control; C: no control; settings: leaf spray; for pesticidal activity rating, Bean beetle: 500 parts per million, 3 days
Experimental: Fourth instar larvae of the Mexican bean beetle (Epilachna varivestis, Muls.), reared on Tendergreen bean plants at a temperature of 80°±5° F. and 50±5 percent relative humidity, were the test insects.
The test compounds were formulated by diluting the stock suspension with water to give a suspension containing 500 parts of test compound per million parts of final formulation. Potted Tendergreen bean plants of standard height and age were placed on a revolving turntable and sprayed with 100-110 milliliters of test compound formulation by use of a DeVilbiss spray gun set at 10 psig air pressure. This application, which lasted 25 seconds, was sufficient to wet plants to run-off. As a control, 100-110 milliliters of a water-acetone-emulsifier solution containing no test compound were also sprayed on infested plants. When dry, the paired leaves were separated and each was placed in a 9 centimeter Petri dish lined with moistened filter paper. Five randomly selected larvae were introduced into each dish, and the dishes were closed. The closed dishes were labeled and held at a temperature of 80°±5° F. for 3 days. Although the larvae could easily consume the leaf within 24 to 48 hours, no more food was added. Larvae which were unable to move the length of the body, even upon stimulation, were considered dead.
as §1, §2

[5] = tested on: house flies (Musca domestica, L.); test: Fly Bait Test; format: in vivo; set-up: key to pesticidal activity rating, Housefly: A: excellent control; B: partial control; C: no control; settings: for pesticidal activity rating, Housefly: 500 parts per million, 24 hours
Experimental: Four to 6 day old adult house flies (Musca domestica, L.), reared according to the specifications of the Chemical Specialities Manufacturing Association (Blue Book, McNair-Dorland Co., N.Y. 1954; pages 243-244, 261) under controlled conditions of 80°±5° F. and 50±5 percent relative humidity, were the test insects. The flies were immobilized by anesthetizing with carbon dioxide and twenty five immobilized individuals, males and females, were transferred to a cage consisting of a standard food strainer about 5 inches in diameter which was inverted over a wrapping-paper-covered surface. The test compounds were formulated by diluting the stock suspension with a 10 percent (by weight) sugar solution to give a suspension containing 500 parts of test compound per million parts of final formulation, by weight. Ten milliliters of the test formulation were added to a souffle cup containing a 1-inch square of an absorbent cotton pad. This bait cup was introduced and centered on the blotting paper under the food strainer prior to admitting the anesthetized flies. The caged flies were allowed to feed on the bait for 24 hours, at a temperature of 80°±5° F. and the relative humidity of 50±5 percent.
as §1, §2

mites = test: Systemic miticidal activity (soil drench of infested bean plants); format: in vivo, Tetranychus urticae Koch; settings: Tetranychus urticae; systemic, soil drench, value in parentheses, Table II; read-out: Insect Toxicity, LD50, Mite, systemic activity
Experimental: as §3, §2
Systemic treatments were made by drenching 20 milliliters of the test compound formulation into the soil around the roots of bean plants growing in 21/2 inch clay pots. […]

[6] = Peroral toxicity to mammals (rat); format: in vivo; settings: in vivo, po, rat, peroral, read-out: Rat P.O. LD50
Experimental: Certain of these compositions were also evaluated to determine their peroral toxicity to mammals. The animal selected for this experiment was the rat. The test results obtained are expressed in terms of the number of milligrams of composition per kilogram of weight of the animal required to achieve a mortality rate of 50 percent (LD50).

| Structure (SMILES) | pesticidal activity rating, Aphid [1] | LC50 ([1]; Aphis fabae, foliar, 24 h, Table II, read-out: Insect Toxicity, LD50, Aphid) [µg/mL] | pesticidal activity rating, Mite [2] | LC50 ([2]; Tetranychus urticae, foliar, Table II, read-out: Insect Toxicity, LD50, Mite) [µg/mL] | pesticidal activity rating, Armyworm [3] | LC50 ([3]; Spodoptera eridania, 72 h, Table II, read-out: Insect Toxicity, LD50, Armyworm) [µg/mL] | LC50 ([4]; Epilachna varivestis, 72 h, Table II, read-out: Insect Toxicity, LD50, Mexican Bean beetle) [µg/mL] | pesticidal activity rating, Bean beetle [4] | pesticidal activity rating, Housefly [5] | LC50 ([5]; Musca domestica, 24 h, Table II, read-out: Insect Toxicity, LD50, House fly) [µg/mL] | LC50 (mites) [µg/mL] | LD50 ([6]; Table II) [mg/kg] | LD50 ([6]; Table I) [mg/kg] |
| --- | --- | --- | --- | --- | --- | --- | --- | --- | --- | --- | --- | --- | --- |
| CNC(=O)ON=C1CSCCS1 [drawing 3 --NHCH3, reference compound] | A | 5 (≈ 24.2 µM) | A | 6 (≈ 29.1 µM) | A | 53 (≈ 257 µM) | 52 (≈ 252 µM) | A | A | 1 (≈ 4.85 µM) | 12 (≈ 58.2 µM) | 15 | – |
| CNC(=O)ON=C1SCCSC1(C)C [drawing 7 --NHCH3, reference compound] | A | – | A | – | A | – | – | A | A | – | – | – | 0.3 |
| CNC(=O)ON=C1C[S+]([O-])CCS1 (stereo not drawn) [drawing 10 --NHCH3, reference compound] | C | – | A | – | A | – | – | A | A | – | – | – | 12.3 |
